Measurements from BigSolDB 2.1.

O=C(O)COc1ccc(Cl)cc1Cl
solubility (mole fraction)
Conditions | in tetrachloromethane | in toluene
294.15 K | – | 0.00118
298.65 K | – | 0.00178
303.15 K | – | 0.00264
303.65 K | 4.99e-05 | –
308.45 K | – | 0.00399
310.65 K | 0.000131 | –
313.25 K | – | 0.00547
313.55 K | 0.000193 | –
318.75 K | 0.000414 | 0.00821
323.05 K | 0.00074 | –
323.15 K | – | 0.0109
328.25 K | 0.00146 | –
328.85 K | – | 0.015
332.95 K | 0.00259 | –
335.35 K | – | 0.0207
338.05 K | 0.00497 | 0.0235
